Molecules are shown by their SMILES.

The text below walks through data of PMC2376372, “3-Bromophenyl 6-acetoxymethyl-2-oxo-2H-1-benzopyran-3-carboxylate inhibits cancer cell invasion in vitro and tumour growth in vivo” (British Journal of Cancer, 2003).

One series concerns the target α-CT. To be noted: pH 7.5, 25°C; ref Pochet et al (2000); cited from earlier work.
A further series has as its target T1, Plasmin (Homo sapiens, UniProt P00747).
T1 construct: No; X′; α-CT; HLE; LMW-uPA; Plasmin; purchased Biogenic
Briefly: Inactivation of plasmin (preincubation method). As to conditions: pH 7.5, 25°C; preincubation method; NI=no inhibition. It counts as biochemical. The protocol:
Bovine α-CT and LMW-uPA (MW=33 000 Da) were purchased from Sigma, HMW-uPA (MW=54 000 Da) from Choay, trypsin (TRY) and THR from Boehringer-Indelheim (Germany), and MMP-2 and MMP-9 from Calbiochem. Human leucocyte elastase and PM were from Elastase Products Co. and Biogenic, respectively. Except for THR, HMW-uPA, MMP-2 and MMP-9, enzyme concentrations were determined by active-site titrations using the appropriate titrant ([Bender et al, 1966]; [Chase and Shaw, 1970]; [Powers and Gupton, 1977]). […]
The kinetic parameters for the inhibition were determined either by the preincubation method for LMW-uPA and PM (small aliquots of the reaction mixture were withdrawn at intervals of time and the remaining activity determined), or by the progress curve method (HLE) when the inhibition was too fast to be measured accurately using the preincubation method. […]
At low inhibitor concentrations, the ratio ki/KI was obtained as kobs/[I]0. […] In the progress curve method, the substrate competes with the inhibitor and the kinetic parameters are determined as previously described ([Doucet et al, 1999]). […]

For the next series, the target named is T2, HLE (Homo sapiens, UniProt P08246).
T2 construct: purchased Elastase Products Co
T2 sequence (P08246 30-267): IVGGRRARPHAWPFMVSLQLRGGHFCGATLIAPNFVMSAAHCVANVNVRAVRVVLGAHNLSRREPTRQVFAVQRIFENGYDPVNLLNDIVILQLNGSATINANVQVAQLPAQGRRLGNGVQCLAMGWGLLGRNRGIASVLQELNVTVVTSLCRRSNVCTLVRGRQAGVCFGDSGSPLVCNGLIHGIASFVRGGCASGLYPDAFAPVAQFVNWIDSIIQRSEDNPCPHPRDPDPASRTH
To be noted: pH 8.0, 25°C; ref Pochet et al (2000); cited from earlier work.

The next series has as its system MDA-MB231 cells. Briefly: Tumorigenicity of MDA-MB231 cells injected s.c. with matrigel in nude mice. As to conditions: 30 mg kg^−1 i.p. three times per week. It counts as in vivo. As to the method:
Matrigel (basement membrane proteins) was extracted from the mouse Engelbreth–Holm–Swarm (EHS) tumour as previously described ([Noël et al, 1991]). Tumoral cells were detached by trypsinisation, harvested by centrifugation, resuspended in 0.25 ml of serum-free medium and mixed with an equal volume of cold matrigel (10 mg ml^−1). The suspension (1 × 10^6 cells injection site^−1) was injected subcutaneously (s.c.) on both body flanks of 6–8-week-old female athymic nude mice (n=6; nu/nu Swiss mice from Iffa credo, L'Arbresle, France). The coumarin derivatives in PBS were injected intraperitoneally (30 mg kg^−1) three times per week during the whole assay.
The tumorigenicity defines the capacity of cells to induce tumour formation. The larger (a) and smaller (b) diameters of the apparent tumour were measured and served for tumour volume calculation according to a × b^2 × 0.4 ([Attia and Weiss, 1966]). Injected mice were examined weekly. Tumours presenting a volume higher than 80 mm^3 and which maintained a progressive growth were taken into account ([Noël et al, 1992]). Results are expressed as the mean (±s.e.m.) of the tumour volumes.

T1 sequence (P00747 581-810 limits assumed, species assumed): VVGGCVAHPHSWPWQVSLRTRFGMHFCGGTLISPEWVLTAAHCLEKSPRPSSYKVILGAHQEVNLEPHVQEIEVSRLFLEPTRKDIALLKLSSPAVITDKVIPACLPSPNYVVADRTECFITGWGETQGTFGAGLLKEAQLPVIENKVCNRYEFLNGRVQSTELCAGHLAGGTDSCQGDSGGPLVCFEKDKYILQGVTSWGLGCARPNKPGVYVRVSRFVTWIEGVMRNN
T1 sequence (P00747 97-580 partner limits assumed, species assumed): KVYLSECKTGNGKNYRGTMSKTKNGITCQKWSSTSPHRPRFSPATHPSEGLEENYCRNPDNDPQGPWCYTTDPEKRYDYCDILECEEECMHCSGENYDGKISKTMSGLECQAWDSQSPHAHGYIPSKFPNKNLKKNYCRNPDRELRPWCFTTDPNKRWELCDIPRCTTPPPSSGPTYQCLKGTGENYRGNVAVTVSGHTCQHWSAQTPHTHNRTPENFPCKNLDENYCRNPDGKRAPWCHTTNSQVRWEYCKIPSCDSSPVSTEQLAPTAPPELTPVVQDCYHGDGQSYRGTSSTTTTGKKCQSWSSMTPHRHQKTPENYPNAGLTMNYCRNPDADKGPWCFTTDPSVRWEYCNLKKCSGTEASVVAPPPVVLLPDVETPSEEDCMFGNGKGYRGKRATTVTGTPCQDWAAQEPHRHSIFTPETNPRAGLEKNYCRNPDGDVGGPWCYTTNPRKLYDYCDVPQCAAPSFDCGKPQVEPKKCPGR

Regarding `CC(=O)OCc1ccc2oc(=O)c(C(=O)Oc3cccc(Cl)c3)cc2c1` [compound 4, 3-chlorophenyl 6-acetoxymethyl-2-oxo-2H-1-benzopyran-3-carboxylate], on α-CT, the “ki/KI or kobs/[I], α-CT” value is 20000^a M^−1 s^−1. Also, the “ki/KI or kobs/[I], Plasmin” value at Plasmin is given as “not affected”. For the same molecule, on HLE, the “ki/KI or kobs/[I], HLE” value is given as 1440^a M^−1 s^−1.

Regarding `CC(=O)OCc1ccc2oc(=O)c(C(=O)Oc3cccc(Br)c3)cc2c1` [compound 7, 3-bromophenyl 6-acetoxy-methyl-2-oxo-2H-1-benzopyran-3-carboxylate], the melting point lay in the range of 141 to 142 °C. For the same molecule, in the series with MDA-MB231 cells, the “effect on tumour incidence, MDA-MB231” value was “did not affect tumour incidence”. Also, in the series with MDA-MB231 cells (ANOVA, P<0.05), the “effect on tumour growth, MDA-MB231” value is given as “reduced significantly tumour growth”.

As a reminder, the melting point is the temperature of the solid-liquid transition.
